Measured values from patent US4975433A, “Aminomethyl derivatives of biologically active substances and enhanced delivery thereof across topical membranes” (priority 1989, dated 1990).
Converted amounts (≈) assume the structure as drawn. “And” between values parts separate entries of the source, which are not always exact repeats. Identical values can stand only once. Marks after values point to notes of the source that are not given here.

Columns and labels:
[1] = stability of the bases in water, isopropyl myristate and moisture (NMR, TLC); assay type: physicochemical; conditions: for qualitative order of stability to atmospheric moisture: IPM solution, NMR; for stability in IPM: 24 hours after sonication for 3 hours; for degraded at 48 h: isopropyl myristate, atmospheric moisture, room temperature, two days, read-out: decomposition of base prodrugs in IPM filtrates
Procedure: All the suspensions or solutions were prepared by sonicating mixtures of the drug or prodrugs in the appropriate solvent in sealed flasks for 3 hr. The sealed solutions or suspensions that resulted were allowed to sit at room temperature for 24 hr, then they were briefly (15 sec.) vortexed and 0.50 ml samples were removed and applied to the membranes (area=4.9 cm^2). After an additional 24 hr the remaining sealed suspensions of the prodrugs were filtered, the filtrates and residues were analyzed by inspection of their NMR spectra and TLC to determine if any decomposition of the prodrugs had taken place (none had), and the filtrates were analyzed by UV spectroscopy to determine if the amount of prodrug still in solution corresponded to the solubilities determined in separate experiments (they did). The filtrates were analyzed neat while the residues were dissolved in CDCl3 and the spectra were analyzed for the appearance of the C8 ---H absorption of theophylline at δ7.77 and the C6 ---H absorption of 5-FU at δ7.7. TLC analyses were run using ether as the eluents. The remaining suspensions of the parent drugs were also filtered and the filtrates were analyzed by UV spectroscopy to determine if the amount of drug still in solution corresponded to the solubilities determined in separate experiments (they did).
The derivatives are not stable in the presence of water. […] NMR experiments also supported the low stability of the derivatives in water. Solutions of the bases were prepared in dry DMSO-d6 and then D2 O was added stepwise to the solutions. […] Similar, decomposition of the bases was also observed in other protic solvents such as methanol and propylene glycol.
On the other hand, the stability of the bases in IPM was variable.
When the IPM filtrates, which were used to determine the IPM solubilities of II and III were exposed to atmospheric moisture at room temperature for two days, 50-80% decomposition of the base prodrugs in solution occurred and precipitation of theophylline resulted as determined by analysis of NMR spectra of the solutions and precipitates. The IPM solutions of the other bases eventually decomposed 1-10% upon prolonged exposure (two weeks) to atmospheric moisture. Although no quantitative data were determined, the qualitative order of stability of the theophylline bases to exposure to atmospheric moisture in IMP solution was V=VI>>IV>III>II,as determined by analysis of NMR spectra of their IPM solutions and precipitates from IPM solutions.

[2] = solubilities of prodrugs and parent drugs in selected solvents (Example 8); conditions: for trend in IPM solubility: NMR of neat filtrates, UV
[3] = half-lives of hydrolysis of cytosine and 5-fluorocytosine derivatives in phosphate buffer; conditions: for half-life: phosphate buffer; for pH dependence of hydrolysis rate: basic pH
[4] = mouse; for Kp, initial phase: 100000 uM
Procedure: The diffusion experiments were performed in triplicate for each compound. Three female, hairless mice were sacrificed by cervical dislocation, and the entire dorsal skin removed by blunt dissection from the underlying tissues. The skins were secured with a rubber gasket to the diffusion cell, with the dermis in contact with the receptor phase. The receptor side of the cell was filled with isotonic phosphate buffer (pH 73 at 32°, 0.05 M, μ=0.15) with 1% formaldehyde added to inhibit microbial growth. The receptor phase was kept at a constant temperature of 32° and was stirred magnetically.
The donor phases were applied as suspensions (0.5 ml, 0.1 M) to the skin surface. […] Each sample was replaced by an equal amount of fresh buffer.
These last two steps were used to determine the mass balance. This part of the diffusion cell study is termed the first application.
Samples were obtained using the same schedule described above.
The slopes for each phase of the plotted lines were obtained by linear regression analysis (r>0.990); the slopes were then divided by the surface area of the diffusion cells (4.9 cm^2) to obtain a value for flux (J) in mg/cm^2 /h. The reported fluxes are the average flux of the three diffusion cells.

[5] = lipid and aqueous solubilities of 5-FC and its derivatives; assay type: physicochemical; conditions: for solubility / Solubility, water: distilled water (pH 5.5), approximate, decomposing; for solubility at 48 h / Solubility, IPM: isopropyl myristate; for solubility at 48 h: organic solvent or mixture, read-out: Solubility, IPM; for Solubility, IPM: 2880 min; for IPM solubility relative to other compound: XIV vs 5-FC molar basis, XIIb vs XIIa
[6] = lipid and aqueous solubilities of 5-IDC and its prodrugs; assay type: physicochemical; conditions: for solubility at 48 h: isopropyl myristate, organic solvent or mixture, read-out: Solubility, IPM
Procedure: The approximate aqueous solubilities were determined by the addition of 100 mg of solid to 1 ml distilled water (pH 5.5). Water was added until all the solid dissolved.
The lipid solubilities of 5-iodo-2'-deoxycytidine and its N-Mannich base prodrugs were determined in isopropyl myristate. Three suspensions of the drug or prodrugs were stirred for 48 hours and then filtered. The filtrates were then diluted with either methanol, for the parent drug or dry acetonitrile, for the N-Mannich base prodrugs. The concentration of compound in solution was determined by monitoring the UV absorption at 294 nm (ε=5.79×10^3 1/mole) for 5-IDC, 333 nm (ε=2.46×10^4) for the formamidine derivative and 296 nm for the derivatives. The aqueous solubilities were obtained as described above.

[7] = flux of theophylline in PG after first application of 5-IDC or prodrug (second application); assay type: in vitro ADME, hairless mice
Procedure: A suspension of theophylline in PG (Th/PG; 0.5 ml, 0.4M) was then applied to each diffusion cell. […] This phase of the diffusion cell experiment is labelled the second application.
The slopes for each phase of the plotted lines were obtained by linear regression analysis; the slopes were then divided by the surface area of the diffusion cells (4.9 cm^2) to obtain a value for flux (J) in mg/cm^2 /h. The reported fluxes are the average flux for the three cells.

[8] = isopropyl myristate, organic solvent or mixture, Solubility, IPM, stirred at room temperature 24 hr
[9] = water, pH 7, water, Solubility, water (apparent)
[10] = pH 7.1, Half-life of hydrolysis, cytosine derivatives
[11] = isopropyl myristate, organic solvent or mixture, Solubility, IPM, suspensions sonicated for 3 hr
[12] = pH 7.1, Half-life of hydrolysis, 5-FC derivatives

In the case of `CCN(CC)Cn1cnc2c1c(=O)n(C)c(=O)n2C` [III, 7-(Diethylamino)methyltheophylline], the “qualitative order of stability to atmospheric moisture” value (from here on “qualitative order of stability”) [1] is reported as “V=VI>>IV>III>II”, the “stability in IPM” value [1] is reported as “stable in solution but the IPM insoluble material was theophylline” and the degraded at 48 h [1] is reported as 50 to 80%. For the same compound, the “trend in IPM solubility” value ([2]; IPM) was “III>IV>VI>II>V”, the solubility [2, 8] was 32500 µg/mL (≈ 122 mM) and the solubility [2, 9] was greater than 100000 µg/mL.
`CN(C)Cn1cnc2c1c(=O)n(C)c(=O)n2C` [II] gave a degraded at 48 h [1] of 50 to 80%, a solubility ([2]; isopropyl myristate, organic solvent or mixture, Solubility, IPM, both sonicated 3 hr and stirred 24 hr) of 7600 µg/mL (≈ 32 mM) and a solubility [2, 9] greater than 100000 µg/mL.
With `CCCN(CCC)Cn1cnc2c1c(=O)n(C)c(=O)n2C` [IV, 7-(Dipropylamino)methyltheophylline] the “qualitative order of stability” value [1] was “V=VI>>IV>III>II”, the “stability in IPM” value [1] was “stable in solution but the IPM insoluble material was theophylline” and the “trend in IPM solubility” value ([2]; IPM) was “III>IV>VI>II>V”. The solubility [2, 8] was 27600 µg/mL (≈ 94.1 mM) and the solubility [2, 9] was greater than 100000 µg/mL.
For `O=c1nc(NCN2CCOCC2)ccn1CN1CCOCC1` [IXb, Bis-N^4,1-(4'-morpholinyl)methylcytosine hydrate], the half-life [3, 10] was 9.72 min.
Work on `Cn1c(=O)c2[nH]cnc2n(C)c1=O` [I] yielded a solubility ([2]; isopropyl myristate, organic solvent or mixture) of 95 µg/mL (≈ 0.527 mM) and a solubility ([2]; propylene glycol, organic solvent or mixture) of 16200 µg/mL (≈ 89.9 mM).
In the case of `Cn1c(=O)c2c(ncn2CN2CCOCC2)n(C)c1=O` [V, 7-(4'-Morpholinyl)methyltheophylline], the “qualitative order of stability” value [1] is reported as “V=VI>>IV>III>II”, the “stability in IPM” value [1] is reported as “stable in IPM either in the solid phase or in solution” and the “Solubility, water (apparent)” value ([2]; 1.0 ml water (pH 7.0) added to 100 mg, sonicated 10 sec, not accurate, rapid decomposition) is reported as greater than 100000 µg/mL. For the same compound, the “trend in IPM solubility” value ([2]; IPM) was “III>IV>VI>II>V”, the solubility [2, 11] was 1300 µg/mL (≈ 4.65 mM) and the solubility [2, 9] was roughly 100000 µg/mL (≈ 358 mM).
With `Cn1c(=O)c2c(ncn2CN2CCCC2)n(C)c1=O` [VI, 7-(Pyrrolidyl)methyltheophylline] the “qualitative order of stability” value [1] was “V=VI>>IV>III>II”, the “stability in IPM” value [1] was “stable in IPM either in the solid phase or in solution” and the “trend in IPM solubility” value ([2]; IPM) was “III>IV>VI>II>V”. It also gave a solubility [2, 11] of 10700 µg/mL (≈ 40.6 mM) and a solubility [2, 9] greater than 100000 µg/mL.
With `O=c1nc(NCN2CCCCC2)ccn1CN1CCCCC1` [VIII, Bis-N^4,1-(1'-piperidinyl)methylcytosine] the half-life [3, 10] was 1.42 min.
For `O=c1c(F)cn(CN2CCOCC2)c(=O)n1CN1CCOCC1` [VIII], the solubility [2, 11] was 11800 µg/mL (≈ 35.9 mM) and the solubility [2, 9] was greater than 100000 µg/mL.
For `CN(C)CNc1ccn(CN(C)C)c(=O)n1` [X, Bis-N^4,1-(dimethylamino)methylcytosine hydrate], the half-life [3, 10] was 1 min.
`CN1CCN(CNc2ccn(CN3CCN(C)CC3)c(=O)n2)CC1` [XI, Bis-N^4,1-(4'-methyl-1'-piperazinyl)methylcytosine hydrate] gave a half-life [3, 10] of 27.2 min.
In the case of `CN(C)CNc1nc(=O)n(CN(C)C)cc1F` [XIII, Bis-N^4,1-(dimethylamino)methyl-5-fluorocytosine hydrate], the “Kp, steady-state phase” value [4] is reported as 365 cm/h (× 10^3), the “Kp, initial phase” value [4] is reported as 149 cm/h (× 10^3) and the solubility [5] is reported as > 100000 µg/mL and > 400000 µM. For the same compound, the solubility at 48 h [5] was 950 µM, the solubility at 48 h ([5]; ±SD) was 230 µg/mL and the “pH dependence of hydrolysis rate” value [3] was “hydrolyzed slower at basic pH”. For the same compound, the half-life ([3]; pH 6, Half-life of hydrolysis) was 0.51 min, the half-life [3, 12] was 0.74 min and the half-life ([3]; pH 8, Half-life of hydrolysis) was 0.87 min.
With `O=c1nc(NCN2CCCCC2)c(F)cn1CN1CCCCC1` [XIIa, bis-N^4,1-(1'-piperidinyl)methyl-5-fluorocytosine] the “Kp, steady-state phase” value [4] was 1671 cm/h (× 10^3), the “Solubility, water” value [5] was 10 mg/ml and 0.03 M and the “Solubility, IPM” value ([5]; ±SD) was 5.0 (0.9) mg/ml × 10^2. For the same compound, the “Solubility, IPM” value [5] was 1.6 M(× 10^4) and the half-life [3, 12] was 0.89 min.
For `O=c1nc(NCN2CCCCC2)c(F)cn1CN1CCCCC1` [XIIb, Bis-N^4,1-(1'-piperidinyl)methyl-5-fluorocytosine], the “Kp, steady-state phase” value [4] was 716 cm/h (× 10^3), the “Kp, initial phase” value [4] was 174 cm/h (× 10^3) and the “IPM solubility relative to other compound” value [5] was “twice”. The “Solubility, water” value [5] was 25 mg/ml and 0.08 M, the “Solubility, IPM” value ([5]; ±SD) was 12.0 (0.5) mg/ml × 10^2 and the “Solubility, IPM” value [5] was 3.7 M(× 10^4). For the same compound, the “Half-life of hydrolysis, 5-FC derivatives” value ([3]; pH 7.1 phosphate buffer 0.05 M, 24°) was 0.90(0.01) min and 0.90 min, the half-life ([3]; pH 6, Half-life of hydrolysis) was 0.86 min and the half-life ([3]; pH 8, Half-life of hydrolysis) was 0.79 min.
With `CCN(CC)CNc1nc(=O)n(CN(CC)CC)cc1F` [XIV, Bis-N^4,1-(diethylamino)methyl-5-fluorocytosine hydrate] the “IPM solubility relative to other compound” value [5] was “approximately 230 times”, the solubility [5] was > 100000 µg/mL and > 300000 µM and the solubility at 48 h [5] was 9100 µM. It also gave a solubility at 48 h ([5]; ±SD) of 2710 µg/mL and a half-life [3, 12] of 0.1 min.
In the case of `O=c1nc(NCN2CCCC2)c(F)cn1CN1CCCC1` [XV, Bis-N^4,1-(1'-pyrrolidyl)methyl-5-fluorocytosine hydrate], the solubility [5] is reported as > 100000 µg/mL and > 300000 µM, the solubility at 48 h [5] is reported as 610 µM and the solubility at 48 h ([5]; ±SD) is reported as 180 µg/mL. For the same compound, the “pH dependence of hydrolysis rate” value [3] was “faster”, the half-life ([3]; pH 6, Half-life of hydrolysis) was 1.01 min and the half-life [3, 12] was 1.05 min. For the same compound, the half-life ([3]; pH 8, Half-life of hydrolysis) was 0.66 min.
In the case of `O=c1nc(NCN2CCOCC2)c(F)cn1CN1CCOCC1` [XVI, Bis-N^4,1-(4'-morpholinyl)methyl-5-fluorocytosine hydrate], the “Kp, steady-state phase” value [4] is reported as 213 cm/h (× 10^3), the “Kp, initial phase” value [4] is reported as 73.9 cm/h (× 10^3) and the solubility [5] is reported as 25000 µg/mL and 80000 µM. For the same compound, the solubility at 48 h [5] was 350 µM, the solubility at 48 h ([5]; ±SD) was 180 µg/mL and the “pH dependence of hydrolysis rate” value [3] was “hydrolyzed slower at basic pH”. The half-life ([3]; pH 6, Half-life of hydrolysis) was 1.19 min, the half-life [3, 12] was 9.1 min and the half-life ([3]; pH 8, Half-life of hydrolysis) was 34.2 min.
In the case of `CN1CCN(CNc2nc(=O)n(CN3CCN(C)CC3)cc2F)CC1` [XVII, Bis-N^4,1-(4'-methyl-1'piperazinyl)methyl-5-fluorocytosine hydrate], the “Kp, steady-state phase” value [4] is reported as 919 cm/h (× 10^3), the “Kp, initial phase” value [4] is reported as 67.3 cm/h (× 10^3) and the solubility [5] is reported as > 100000 µg/mL and > 300000 µM. The solubility at 48 h [5] was 220 µM, the solubility at 48 h ([5]; ±SD) was 71 µg/mL and the “pH dependence of hydrolysis rate” value [3] was “hydrolyzed slower at basic pH”. It also gave a half-life ([3]; pH 6, Half-life of hydrolysis) of 20.1 min, a half-life [3, 12] of 26.3 min and a half-life ([3]; pH 8, Half-life of hydrolysis) of 28.5 min.
For `O=c1nc(NCN2CCCCC2)c(I)cn1[C@H]1C[C@H](O)[C@@H](CO)O1` [XXIIa, N^4-(1"-piperidinyl)methyl-5-iodo-2'-deoxycytidine hydrate], the solubility at 48 h [6] was 62 µM, the solubility at 48 h ([6]; ±SD) was 28 µg/mL and the solubility ([6]; pH 5.5, water, apparent) was 100000 µg/mL and 222000 µM. The X-intercept ([7]; first application in IPM) was 1.0 h, the “Flux of theophylline from PG after first application” value ([7]; first application in IPM, Th/PG 0.4 M, ±SD) was 192 (38) mg/cm^2 /h × 10^3 and the “effect on flux of theophylline” value ([7]; vs IPM) was “Not significantly different from flux after first application”.
